Data set [1] is described as follows: Acute toxicity (LD50) in mice. As to conditions: mouse, in vivo. As to the method:
The acute toxicities and symptomatologies of the compounds according to the present invention have been determined on CD1 (Charles River) male mice by I.V. and oral methods. The LD50's were calculated, after 3 days of observation, by the cumulative method of J. J. Reed & H. Muench, Amer. J. Hyg., 27, 493, 1938, which is relied on herein and the disclosure incorporated by reference.

A further data set is described as follows: in vivo. The note with it: rat, iv.
The subject of data set [2] is ventricular arrhythmia caused by aconitine. The data set is described as follows: animal or person. The note with it: Rattus norvegicus, iv, read-out: ED50 I.V., dose increasing by 50% the perfusion time of aconitine.
In data set [3] the test system is vasoconstriction of the nasal mucous membrane. Description: Vascular action: potentiation of the vascular effects of serotonine in anaesthetized dog. The class given is in vivo.
Experimental: The potentiation of the vascular effects of serotonine is shown according to the procedure of J. J. Loux, Arch. […] The modified method consists in injecting into the carotid of an anaesthetized dog increasing and cumulated doses of serotonine. […] This increase was measured by connecting the nasal sinus, hermetically isolated from outside, with a pressure gauge.
Data set [4] deals with ventricular arrhythmia caused by aconitine. The note with it: aconitine test, rats.
In data set [5] the test system is release of serotonine by human blood platelets. Description: Release of serotonine from human blood platelets. The class given is cell-based. As to conditions: for activation at 5 µM / activation at 50 µM: Homo sapiens, Platelet, read-out: Percentage of increase of the release of serotonine; for release of serotonine compared with p-chloro amphetamine, in words / release of serotonine, in words: human blood platelets. From the text: (§1) The capacity of the products for inhibiting the uptake of serotonine or for causing its release has been shown on human blood platelets according to J. L. DAVID et al. "Platelets Function and Thrombosis, a Review of Methods" p. 335 (Plenum Press, London, 1972).
(b) Release of serotonine
The action of the products on the release of serotonine has been tested at two concentrations: 5×10^-6 mole per liter and 5×10^-5mole per liter.
The results obtained are expressed by a percentage of increase of the release of serotonine in comparison with the results obtained with the controls.

Data set [6] concerns sleep induced by serotonine. Description: Potentiation of sleep induced by serotonine in chickens. It counts as in vivo, chicken. As to the method:
The role of the cerebral serotonine in sleep is a well-known fact as reported by M. Jouvet and Coll., C. R. Acad. Sc.
Groups of 12 chickens were used, to which were administered intravenously serotonine at a dosage level of 0.1 mg/kg.

For data set [7], the system named is uptake of serotonine by human blood platelets. Description: Inhibition of the uptake of serotonine by human blood platelets. The class given is cell-based. The note with it: for IC50: Platelet, read-out: Inhibition of the Uptake of serotonine I50; for times less effective than its epimer as inhibitor of serotonine uptake: Example 7 vs Example 1, Example 9 vs Example 3.
Text: It is known that the uptake of serotonine by the blood platelets is a good model or indication of the uptake of this amine by neurons [see J. TUOMISTO, J. Pharm., Pharmac., 26 92 (1974)]. When it is applied to the investigation of medicaments, a method which brings into play the blood platelets presents great interest because it makes it possible to use human cells, which enables the method to give a good anticipation of the effect of the products on human beings.
as §1
(a) Inhibition of the uptake of serotonine
The results are expressed by a 50% inhibiting dose I50, which represents the product dose in micromoles per liter reducing the uptake of serotonine by 50%.

The test system of a further data set is 5-HTP-induced quivering. Description: Potentiation test of 5-hydroxytryptophan (5-HTP), quivering in mice. The class given is in vivo, CD1 (Charles River) male mice. As to conditions: for ED50: Mus musculus, sc, read-out: ED 50, dose giving an average indication of quivering equal to 1; for inherent effect (in the absence of 5-HTP): dose of 25 mg/kg, control product groups. From the text:
(2) Potentialing Effect of 5-HTP:
It is known that the administration of 5-HTP parenterally in mice causes, with large doses, a characteristic behavior, i.e. quivering, torsions of the trunk, displacement of the rear legs, shaking of the head and increased general motility. To show a potentiating power with respect to 5-HTP, the present inventors have therefore used to advantage one of the characteristic properties of the precursor of serotonine, i.e. quivering. The procedure used is inspired by that of C. […] Groups of 8 male mice were used. The chronological order of the test was as follows for the groups treated with both 5-HTP and the products according to the invention.
At time t=30 min., the product to the tested was injected subcutaneously (S.C.) in the form of a 9% aqueous solution of NaCl.
At time t=75 min., the quivering in each animal was measured using the following scale:
1=quivering of average intensity
The chronological order was the same for the "control 5-HTP" and "control product" groups except that, in the first case, a 9% aqueous solution of NaCl was injected in the S.C. manner instead of the product solution and, in the second case, a 9% aqueous solution of NaCl was injected in the I.P. manner instead of the 5-HTP solution. The "control product" groups received the same doses of the tested product as the groups treated with both 5-HTP and the product in order to discover any possible effect inherent in the product.
The number of points for each group was totalled and the average indication of quivering was determined.

Data set [8] addresses benzodiazepine receptors in rat brain membranes. The data set is described as follows: Inhibition of specific ^3 H-diazepam binding to rat brain membranes. As to conditions: for Ki: read-out: Ki, Inhibition of Specific ^3 H-Diazepam Binding To Rat Brain Membranes, rat brain membranes, ^3 H-diazepam.
Data set [9] relates to uptake of serotonine by synaptosomes of the rat's brain. The data set is described as follows: Inhibition of the uptake of serotonine by synaptosomes of the rat's brain. The note with it: in vitro, read-out: 50% inhibiting dose I50, uptake of serotonine by synaptosomes. It counts as biochemical.
Where [10] appears, read: iv, I.V., Table 4 (toxicity; species not given), read-out: LD50 I.V.
Where [11] appears, read: po, Table 6, P.O., mice, 3 days of observation, read-out: LD50 P.O.
The mark [12] stands for this setting: 5 × 10^-5 mole per liter, in comparison with controls.
The mark [13] stands for this setting: 5 × 10^-6 mole per liter, in comparison with controls.

Read-outs that look alike come from different tables or passages of the source.

As a reminder, the LD50 is the dose expected to kill half of the subjects tested. On to `CC(C)N(CCC(C(N)=O)(c1ccccc1)c1ccccn1)C(C)C` (stereo not drawn) [Disopyramide, reference compound], for which the 50% lethal dose (LD50) at 72 h in data set [1] (setting [10]) was found to be 26 mg/kg. Also, the selectivity ratio in “in vivo” was 6.5. For the same compound, in data set [2], the ED50 came out at 4 mg/kg.
Consider `C=C[C@H]1CNCC[C@H]1CCCc1ccnc2ccc(OC)cc12` [Example 1, 4(R)-[3-(6-methoxy 4-quinolyl)propyl] 3(R)-vinyl piperidine], for which, in [3] (1 μg/kg I.V., 0.05 μg/kg of serotonine), the “potentiation of vascular effect of serotonine (pressure decrease measured by the gauge)” value is given as “twice greater”. In addition, the median lethal dose (LD50) at 72 h in data set [1] (setting [10]) was found to be 30 mg/kg. For the same compound, the LD50 at 72 h in data set [1] (setting [11]) turned out to be 600 mg/kg. Also, the “antiarythmic effectiveness compared with quinidine and disopyramide, in words” value in data set [4] is “more effective than the reference products (quinidine and disopyramide)”. Moreover, in data set [5], the activation at 5 µM came to 7% and the activation at 50 µM was determined as 32%. In data set [6] (product of Example 1 at 3 mg/kg I.V. + serotonine 0.1 mg/kg I.V.), the “chickens sent to sleep” value was determined as 60%. The IC50 in data set [7] (Homo sapiens) came out at 10 nM. In the data set on 5-HTP-induced quivering, the ED50 worked out at 14 mg/kg and the “inherent effect (in the absence of 5-HTP)” value is “did not have any inherent effect”. Besides, in data set [2], the ED50 was found to be 2 mg/kg.
In general, Ki refers to the equilibrium dissociation constant of an inhibitor or competing ligand from its target. Regarding `C=C[C@H]1CNCC[C@H]1CCCc1ccnc2ccccc12` [Example 2, 4(R)-[3-(4-quinolyl)propyl] 3(R)-vinyl piperidine], in data set [8], the inhibitory constant (Ki) worked out at 2.5 µM. Besides, the IC50 in [9] came to 35 nM. For the same compound, the values for the median lethal dose (LD50) at 72 h in data set [1] (setting [10]) and in [1] (setting [11]) were 30 mg/kg and 525 mg/kg, respectively. Further, the ED50 was 12 mg/kg in the data set with 5-HTP-induced quivering (product S.C., 5-HTP 150 mg/kg I.P., male mice) and 12 mg/kg in data set [2]. The “inherent effect (in the absence of 5-HTP)” value with 5-HTP-induced quivering is “did not have any inherent effect”. Besides, the selectivity ratio in “in vivo” came out at 2.5.
Turning to `CC[C@H]1CNCC[C@H]1CCCc1ccnc2ccc(OC)cc12` [Example 3, 4(R)-[3-(6-methoxy 4-quinolyl)propyl] 3(R)-ethyl piperidine], the inhibition constant (Ki) in data set [8] was found to be 4.5 µM. The IC50 in data set [9] was determined as 8 nM; in data set [7] (human blood platelets) it was 10 nM. For the same compound, the LD50 at 72 h in data set [1] (setting [10]) was found to be 21 mg/kg; in data set [1] (setting [11]), 600 mg/kg. Further, the “antiarythmic effectiveness compared with quinidine and disopyramide, in words” value in data set [4] is “more effective than the reference products (quinidine and disopyramide)”. Moreover, the activation at 50 µM in data set [5] (setting [12]) is 67%. Besides, the activation at 5 µM in [5] (setting [13]) came to 34%. In addition, the “release of serotonine compared with p-chloro amphetamine, in words” value in [5] is given as “even more effective than p-chloro amphetamine”. The “release of serotonine, in words” value in data set [5] is given as “powerful agents for the release of serotonine”. Further, the selectivity ratio in the data set “in vivo” stood at 30. In data set [2], the ED50 is 0.7 mg/kg.
Take `c1ccc2c(CCCC3CCNCC3)ccnc2c1` [Example 4, 4-[3-(4-quinolyl)propyl]piperidine]: the inhibition constant Ki in data set [8] was 3.5 µM. Moreover, the LD50 at 72 h in data set [1] (setting [10]) is 42 mg/kg; in data set [1] (setting [11]) it was 600 mg/kg. Also, the selectivity ratio in the data set “in vivo” amounted to 2.8. For the same compound, the ED50 in data set [2] was 15 mg/kg.
Consider `CC[C@H]1CNCC[C@H]1CCCc1ccnc2ccccc12` [Example 5, 4(R)-[3-(4-quinolyl)propyl] 3(R)-ethyl piperidine], for which the inhibitory constant (Ki) in [8] is 8 µM. In addition, the LD50 at 72 h in data set [1] (setting [10]) is 22 mg/kg; in data set [1] (setting [11]), 600 mg/kg. In [4], the “antiarythmic effectiveness compared with quinidine and disopyramide, in words” value is “more effective than the reference products (quinidine and disopyramide)”. Moreover, in the data set “in vivo”, the selectivity ratio was 9.6. Besides, the ED50 in data set [2] worked out at 2.3 mg/kg.
On to `C=C[C@@H]1CNCC[C@H]1CCCc1ccnc2ccc(OC)cc12` [Example 7, 4(R)-[3-(6-methoxy 4-quinolyl)propyl]3(S)-vinyl piperidine], for which the median lethal dose (LD50) at 72 h in [1] (setting [11]) came out at 225 mg/kg. In [5], the activation at 5 µM came out at 40%; the activation at 50 µM worked out at 78%; the “release of serotonine compared with p-chloro amphetamine, in words” value is given as “even more effective than p-chloro amphetamine”; the “release of serotonine, in words” value was “powerful agents for the release of serotonine”. Besides, the IC50 in data set [7] (Homo sapiens) is 1000 nM. In addition, the “times less effective than its epimer as inhibitor of serotonine uptake” value in data set [7] (human blood platelets) is listed as 100 times.
In the case of `CC[C@@H]1CNCC[C@H]1CCCc1ccnc2ccc(OC)cc12` [Example 9, 4(R)-[3-(6-methoxy 4-quinolyl)propyl]3(S)-ethyl piperidine], in data set [8], the inhibitory constant (Ki) stood at 5 µM. In addition, the median lethal dose (LD50) at 72 h in data set [1] (setting [11]) came to 200 mg/kg. For the same compound, the activation at 50 µM in [5] (setting [12]) amounted to 69%. The activation at 5 µM in data set [5] (setting [13]) came to 30%. Besides, in data set [5], the “release of serotonine compared with p-chloro amphetamine, in words” value is “even more effective than p-chloro amphetamine” and the “release of serotonine, in words” value is “powerful agents for the release of serotonine”. Besides, in [7] (human blood platelets), the IC50 stood at 100 nM and the “times less effective than its epimer as inhibitor of serotonine uptake” value is listed as ≥ 10 times.
`CN(C)CCCN1c2ccccc2CCc2ccccc21` [Imipramine, reference compound]: the “Ki, Inhibition of Specific ^3 H-Diazepam Binding To Rat Brain Membranes” value in [8] was “inactive”. Also, in [5], the activation at 5 µM is 3% and the activation at 50 µM came out at 13%. For the same compound, the IC50 in [7] (Homo sapiens) stood at 400 nM.
With `C=C[C@H]1C[N@@]2CC[C@H]1C[C@@H]2[C@@H](O)c1ccnc2ccc(OC)cc12` [Quinidine, reference compound], the LD50 at 72 h in data set [1] (setting [10]) was found to be 70 mg/kg. The selectivity ratio in “in vivo” amounted to 9.3. In data set [2], the ED50 worked out at 7.5 mg/kg.
Regarding `CC(N)Cc1ccc(Cl)cc1` (stereo not drawn) [p-Chloro amphetamine, p-chloro amphetamine, reference compound], in [5], the activation at 5 µM was determined as 6% and the activation at 50 µM was determined as 51%. In addition, in data set [7] (Homo sapiens), the IC50 is 12000 nM.
With `NCCc1c[nH]c2ccc(O)cc12` [serotonine, reference compound], the minimal effective dose in data set [3] (Canis lupus familiaris, serotonine into the carotid, increasing and cumulated doses, read-out: dose from which an increase of the total volume of sinus was observed) is ≥ 0.2 µg/kg. Besides, the “chickens sent to sleep” value in data set [6] (serotonine 0.1 mg/kg I.V. alone) was determined as 25%.
